According to patent publication US20260226034A1 (The Rockefeller University, priority 2023, published 2026):

What follows are compounds tested against NSP14 (Severe acute respiratory syndrome coronavirus 2, UniProt P0DTD1) (assay: NSP14 MTase inhibition assay at 37° C. (MTase-Glo SAH detection)). Details: 37° C., 0.3 nM NSP14, 2.5 μM SAM, 2.5 μM GpppA RNA; read-out: Nsp14 Mtase Inh. IC50.
Assay type: biochemical, SARS-CoV-2

Structure (SMILES)	IC50 [nM]
Cc1c(S(=O)(=O)c2ccc3[nH]ncc3c2)cc(C(=O)NCc2c(Cl)cnn2C)n1CC(F)(F)F [B.185]	3.9
Cc1c(S(=O)(=O)c2ccc3[nH]ncc3c2)cc(C(=O)NCc2c(Cl)cnn2C)n1CC(F)F [B.186]	1.1
Cc1c(S(=O)(=O)c2ccc3[nH]ncc3c2)cc(C(=O)NCc2c(Cl)cc[nH]c2=O)n1C [B.187]	0.61
Cc1c(S(=O)(=O)c2ccc3[nH]ncc3c2)cc(C(=O)NCc2c(Cl)cnn2C)n1C1CC1 [B.188]	1.6
Cc1c(S(=O)(=O)c2ccc3[nH]ncc3c2)cc(C(=O)NCc2[nH]c(=O)ccc2F)n1C [B.189]	0.37
Cc1c(S(=O)(=O)c2ccc3[nH]ncc3c2)cc(C(=O)NCc2[nH]c(=O)ccc2Cl)n1C [B.190]	3.3
Cn1ncc(Cl)c1CNC(=O)c1cc(S(=O)(=O)c2ccc3[nH]ncc3c2)c2n1CCC2 [B.191]	8.6
Cn1ncc(Cl)c1CNC(=O)c1cc(S(=O)(=O)c2cccc(C#N)c2)c2n1CCC2 [B.192]	98
Cc1c(S(=O)(=O)c2cc(Cl)cc(C#N)c2)cc(C(=O)NCc2c(Cl)cnn2C)n1C [B.193]	6.4
COCCn1c(C(=O)NCc2c(Cl)cnn2C)cc(S(=O)(=O)c2cc(Cl)c3[nH]ncc3c2)c1C [B.194]	1.1
Cc1c(S(=O)(=O)c2cc(Cl)c3[nH]ncc3c2)cc(C(=O)NS(=O)(=NCC(F)(F)F)c2ccccc2)n1C (centres unmarked) [B.195]	12
Cc1c(S(=O)(=O)c2ccc3[nH]ncc3c2)cc(C(=O)NCCCOc2ncc(F)cn2)n1C [B.196]	18
Cc1c(S(=O)(=O)c2ccc3[nH]ncc3c2)cc(C(=O)NCC2(COc3ncc(F)cn3)CC2)n1C [B.197]	2.7
Cc1c(S(=O)(=O)c2ccc3[nH]ncc3c2)cc(C(=O)NCCN(C)c2ncc(F)cn2)n1C [B.198]	16
